Measured values: US20230143604A1, “QW DOSING OF GIP RECEPTOR AGONIST PEPTIDE COMPOUNDS AND USES THEREOF” (TAKEDA PHARMACEUTICAL COMPANY LIMITED, priority 2020, published 2023)
Where two headings read alike, the source gives them in different places.

Tests used:
physchem = assay: physchem
In short: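 Solubility at pH 7.4 determined by stepwise addition of 200 mM phosphate buffer in 100 μL increments to 3 mg peptide, mixing briefly each time, until no insoluble material remained, then measured by liquid chromatography.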

Dogs = format: in vivo; details: 30 nmol/kg s.c.
Protocol: Dogs are transferred to an observation cage (700 mm W×700 mm D×700 mm H [W×D×H], without food) on 1 day before each apomorphine challenge. The dogs are weighed by using an electronic balance then test peptide compounds and vehicle will be administrated via the subcutaneous route. Apomorphine is challenged at 8 hr after the administration and emetic events will be monitored for 1 h by video recording. The second apomorphine challenge will be 72 hr after the administration and emetic events will be recorded by the same protocol. Emesis symptoms are continuously recorded using a video camera and stored on a blue ray disc. Observation of symptoms include retching (a rhythmic contraction of the abdomen) and vomiting (vomiting behavior, including the elimination of vomitus or similar behavior). Besides, the combination of retching and vomiting is defined as emesis, and the number of episodes, latency (time elapsed from morphine administration until the onset of the first emesis symptom), duration (time elapsed between the onset of the first and final episodes of emesis), and frequency (number of animals showing emesis/number of experimental animals) of each of these symptoms is calculated. The latency in cases where emesis symptoms are not noted is taken as the maximum value (1 h for apomorphine challenge) at the end of observation. When the duration of the emesis symptoms is less than 1 min, the duration is recorded, for convenience, as 1 min.

female beagle dogs = assay: PYY-1119-induced vomiting in dogs; format: in vivo; details: 3 nmol/kg s.c., 72 hours post-dose (lower line)
Protocol: The GIPR agonist peptide compounds of the present disclosure or vehicle (0.09% [w/v] Tween 80/10% DMSO/PBS) were administered subcutaneously (sc) at 3-10 nmol/kg to female beagle dogs (10 months old), followed by sc injections with Y2R agonist ((4-imidazolecarbonyl-Ser-D-Hyp-Iva-Pya(4)-Cha-Leu(Me)-Asn-Lys-Aib-Thr-Arg-Gln-Arg-Cha-NH2), […]), […]) at 1 hour or specified hours in the table postdose. Emetic episodes were counted for 2 hours after administration (by blinded analysis).

[1] = Pharmacokinetics in dog after IV and SC dosing; details: in vivo, 3 nmol/kg
In short: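 Dogs were dosed IV or SC at 1 mL/kg with peptide at 3 nmol/mL in 10% DMSO/0.09% Polysorbate/PBS pH 7.4. K2-EDTA plasma was sampled to 336 h, and peptide was quantified by LCMS to derive half-life.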

SMILES: CC[C@H](C)[C@H](NC(=O)[C@H](CO)NC(=O)[C@H](Cc1ccc(O)cc1)NC(=O)[C@H](CC(=O)O)NC(=O)[C@H](CO)NC(=O)[C@@H](NC(=O)[C@H](Cc1ccccc1)NC(=O)[C@@H](NC(=O)CNC(=O)[C@H](CCC(=O)O)NC(=O)C(C)(C)NC(=O)[C@H](Cc1ccc(O)cc1)NC)[C@@H](C)O)[C@@H](C)CC)C(=O)N[C@@H](C)C(=O)N[C@@H](CCCCNC(=O)CNC(=O)CNC(=O)CNC(=O)CNC(=O)CNC(=O)CCCCCCCCCCCCCCCCC(=O)O)C(=O)N[C@@H](CC(=O)O)C(=O)N[C@@H](CCCNC(=N)N)C(=O)NC(C)(C)C(=O)N[C@@H](C)C(=O)N[C@@H](CCC(N)=O)C(=O)NC(C)(C)C(=O)N[C@@H](CC(N)=O)C(=O)N[C@@H](Cc1ccccc1)C(=O)N[C@H](C(=O)N[C@@H](CC(N)=O)C(=O)N[C@@H](Cc1c[nH]c2ccccc12)C(=O)N[C@@H](CC(C)C)C(=O)N[C@@H](CC(C)C)C(=O)N[C@@H](C)C(=O)N[C@@H](CCC(N)=O)C(=O)N[C@@H](CO)C(=O)N1CCC[C@H]1C(=O)N[C@@H](CO)C(=O)N[C@@H](CO)C(=O)NCC(=O)N[C@@H](C)C(=O)N1CCC[C@H]1C(=O)N1CCC[C@H]1C(=O)N1CCC[C@H]1C(=O)N[C@@H](CO)C(=O)O)C(C)C [Compound 45, Me-Y-Aib-E-G-T-F-I-S-D-Y-S-I-A-Km-D-R-Aib-A-Q-Aib-N-F-V-N-W-L-L-A-Q-S-P-S-S-G-A-P-P-P-S-OH]
- solubility (physchem; pH 7.4): ≥ 15 mg/mL
- solubility (physchem; pH 7.4, aqueous buffer): ≥ 60 mg/mL
- % inhibition of emetic events at doses (nmol/kg) shown in dog apomorphine model (Dogs; after 8 hrs (upper)): 70% (30 nmol/kg)
- % inhibition of emetic events at doses (nmol/kg) shown in dog apomorphine model (Dogs; after 72 hours (lower)): 72% (30 nmol/kg)
- Inhibition (%) of PYY-1119-induced emetic event (female beagle dogs): 90% (3 nmol/kg)
- half-life ([1]; iv): 62 h
- MRT last ([1]; sc): 125 h
